IC50 and inhibition data for 13 molecules are collected here from publication PMC12133982, “Predominant T-cell epitopes of SARS-CoV-2 restricted by multiple prevalent HLA-B and HLA-C allotypes in Northeast Asia” (Frontiers in Immunology, 2025).

Each structure is given as a SMILES string. Read-outs that look alike come from different tables or passages of the source. Peptide text beside a SMILES is read from it. A value given as a limit tells only on which side of the number the result lay.

Assay [1] has as its target HLA-C0102 (Homo sapiens, UniProt P10321, A176E/A330V/A35S/A97T/C350S/D114A/D33F/L171W/L180R/L218V/M285V/M309V/M331V/P208H/Q277E/Q291P/R121W/R243W/R30K/S123C/S140Y/S297R/T329A/T363A/V272M/V319A). Description: Competitive peptide binding assay, CIR-C0102. The conditions noted are these: for inhibition at 5 µM / inhibition at 15 µM: read-out: Inhibition % of Cy5-reference peptide binding. As for the experimental part: (§1) Then, competitive peptide binding assays were performed.

The target of assay [2] is HLA-C0401 (Homo sapiens, UniProt P10321, A176E/A330V/A35S/A73E/C25G/C350S/D138N/D33S/E299K/L171W/L180R/L218V/M285V/M309V/M331V/N104K/P208H/Q277E/Q291P/R243W/R38W/S101N/S123F/S140F/S297R/S48A/T329A/T363A/V319A/V327M). Description: Competitive peptide binding assay, CIR-C0401. The conditions noted are these: HMy2.CIR-C0401 cells, reference Cy5-[…], class from inhibition at 5 and 15 μM, flow cytometry MFI; read-out: Binding affinity with HLA-C0401. Here is the method: as §1
Background: Flow cytometry measures light scatter and fluorescence of single cells or particles in a stream.

Assay [3] deals with HLA-C0602 (Homo sapiens, UniProt P10321, A176E/A330V/C350S/L171W/L180W/L218V/M285V/M309V/M331V/N104K/P208H/Q277E/Q291P/R121W/S101N/S123Y/S297R/T329A/T363A/V319A/V328M). Briefly: Competitive peptide binding assay, CIR-C0602.
Assay [4] has as its target HLA-C0702 (Homo sapiens, UniProt P10321). Briefly: Competitive peptide binding assay, CIR-C0702.
Assay [5] addresses HLA-C0304 (Homo sapiens, UniProt P10321, A176E/A330V/A97T/C25G/C350S/D114A/D33Y/E197K/L119I/L127V/L171W/L218V/M285V/M309V/M331V/P208H/Q277E/Q291P/R243W/R45H/S123Y/S140Y/S297R/S48A/T118I/T187L/T329A/T363A/V319A). Briefly: Competitive peptide binding assay, CIR-C0304. The conditions noted are these: HMy2.CIR-C0304 cells, reference Cy5-[…], class from inhibition at 5 and 15 μM, flow cytometry MFI; read-out: Binding affinity with HLA-C0304. As for the experimental part: as §1

In assay [6] the target is HLA-C0302 (Homo sapiens, UniProt P10321, A176E/A330V/A97T/C25G/C350S/D114A/D33Y/E197K/L127V/L171W/L218V/M285V/M309V/M331V/P208H/Q277E/Q291P/R243W/R45H/S123Y/S297R/S48A/T118I/T187L/T329A/T363A/V319A). Description: Competitive peptide binding assay, CIR-C0302. The conditions noted are these: HMy2.CIR-C0302 cells, reference Cy5-[…], class from inhibition at 5 and 15 μM, flow cytometry MFI; read-out: Binding affinity with HLA-C0302. As for the experimental part:
as §1

In assay [7] the target is HLA-C0801 (Homo sapiens, UniProt P10321, A176T/A330V/A97T/C350S/D114A/D138N/D33Y/E201K/E299G/L171W/L218V/M285V/M309V/M331V/P208H/Q277E/Q291P/R59Q/S123Y/S140F/S297R/S48A/T329A/T363A/V319A/V328M). Briefly: Competitive peptide binding assay, CIR-C0801. The conditions noted are these: HMy2.CIR-C0801 cells, reference Cy5-[…], class from inhibition at 5 and 15 μM, flow cytometry MFI; read-out: Binding affinity with HLA-C0801. As for the experimental part:
as §1

The mark [8] stands for this setting: HMy2.CIR-C0102 cells, reference Cy5-[…], class from inhibition at 5 and 15 μM, flow cytometry MFI, read-out: Binding affinity with HLA-C0102.

Take `CC[C@H](C)[C@H](NC(=O)[C@H](C)NC(=O)[C@H](CC(C)C)NC(=O)[C@@H](NC(=O)[C@@H](N)C(C)C)[C@@H](C)O)C(=O)N[C@@H](CC(C)C)C(=O)N[C@H](C(=O)N[C@@H](C)C(=O)N[C@@H](CC(C)C)C(=O)O)[C@@H](C)O` [Epitope M3, VTLAILTAL] (H-VTLAILTAL-OH; N-terminus and C-terminus assumed): the IC50 in assay [1] (setting [8]) was < 5 µM; in assay [2] it was < 5 µM; in assay [3] it was > 15 µM; in assay [4], 5 to 15 µM. For the same molecule, the inhibition at 5 µM in assay [1] amounted to 69.2%. The inhibition at 15 µM in assay [1] amounted to 87.4%.
For the molecule `CC[C@H](C)[C@H](NC(=O)[C@@H]1CCCN1C(=O)[C@@H](NC(=O)[C@H](Cc1c[nH]cn1)NC(=O)[C@H](CCCCN)NC(=O)[C@H](CO)NC(=O)[C@H](Cc1ccc(O)cc1)NC(=O)[C@@H](NC(=O)[C@@H](N)CCCCN)[C@@H](C)CC)[C@@H](C)O)C(=O)O` [Epitope M34] (H-KIYSKHTPI-OH; N-terminus and C-terminus assumed), the IC50 in assay [1] (setting [8]) is < 5 µM; in assay [5], > 15 µM; in assay [6] it was > 15 µM; in assay [2] it was 5 to 15 µM. Besides, the inhibition at 5 µM in assay [1] came to 77.4%. The inhibition at 15 µM in assay [1] worked out at 91.2%.
For the molecule `C[C@H](NC(=O)[C@H](CO)NC(=O)[C@H](C)NC(=O)[C@H](CO)NC(=O)[C@@H]1CCCN1C(=O)[C@H](C)NC(=O)[C@@H](N)Cc1ccccc1)C(=O)N[C@@H](Cc1ccccc1)C(=O)N[C@@H](Cc1ccccc1)C(=O)O` [Epitope M16] (H-FAPSASAFF-OH; N-terminus and C-terminus assumed), the IC50 is 5 to 15 µM in assay [1] (setting [8]); < 5 µM in assay [6]; 5 to 15 µM in assay [2]; > 15 µM in assay [3]; > 15 µM in assay [4]. In addition, the inhibition at 5 µM in assay [1] is 37%. Also, the inhibition at 15 µM in assay [1] came out at 81.4%.
As to `CC(C)C[C@H](NC(=O)[C@@H](NC(=O)[C@@H](NC(=O)CNC(=O)[C@H](CCC(N)=O)NC(=O)[C@@H]1CCCN1C(=O)[C@H](CC(C)C)NC(=O)[C@H](CCC(N)=O)NC(=O)[C@H](CC(C)C)NC(=O)[C@@H](N)C(C)C)[C@@H](C)O)[C@@H](C)O)C(=O)O` [Epitope M18] (H-VLQLPQGTTL-OH; N-terminus and C-terminus assumed), the IC50 in assay [1] (setting [8]) was 5 to 15 µM; in assay [7] it was > 15 µM; in assay [5], > 15 µM; in assay [3], > 15 µM.
Consider `CC[C@H](C)[C@H](NC(=O)[C@H](CCC(N)=O)NC(=O)[C@H](CC(C)C)NC(=O)[C@H](C)NC(=O)[C@H](C)N)C(=O)N1CCC[C@H]1C(=O)N[C@@H](Cc1ccccc1)C(=O)N[C@@H](C)C(=O)N[C@@H](CCSC)C(=O)O` [Epitope M66] (H-AALQIPFAM-OH; N-terminus and C-terminus assumed), for which the IC50 in assay [5] was < 5 µM; in assay [3], 5 to 15 µM.
For the molecule `CC(C)C[C@H](NC(=O)[C@H](C)NC(=O)[C@H](C)NC(=O)CNC(=O)[C@H](C)NC(=O)CNC(=O)[C@H](Cc1ccccc1)NC(=O)[C@@H](NC(=O)[C@@H](N)Cc1c[nH]c2ccccc12)[C@@H](C)O)C(=O)O` [Epitope M33, WTFGAGAAL] (H-WTFGAGAAL-OH; N-terminus and C-terminus assumed), the figures for the IC50 in assay [5] and in assay [6] were > 15 µM and 5 to 15 µM, respectively.
For `CC[C@H](C)[C@H](NC(=O)[C@H](C)NC(=O)CNC(=O)[C@@H](NC(=O)[C@H](Cc1ccc(O)cc1)NC(=O)[C@@H](NC(=O)[C@@H](N)CC(C)C)[C@@H](C)O)[C@@H](C)O)C(=O)N[C@@H](CCCCN)C(=O)N[C@@H](CC(C)C)C(=O)O` [Epitope M15] (H-LTYTGAIKL-OH; N-terminus and C-terminus assumed), the IC50 was < 5 µM in assay [7], > 15 µM in assay [6], < 5 µM in assay [3] and > 15 µM in assay [4].
`CC(C)[C@H](NC(=O)[C@H](CC(N)=O)NC(=O)[C@H](Cc1ccc(O)cc1)NC(=O)[C@H](C)NC(=O)[C@@H](N)CCCCN)C(=O)N[C@H](C(=O)N[C@@H](CCC(N)=O)C(=O)N[C@@H](C)C(=O)N[C@@H](Cc1ccccc1)C(=O)O)[C@@H](C)O` [Epitope M11] (H-KAYNVTQAF-OH): the IC50 in assay [1] (setting [8]) was 5 to 15 µM; in assay [6], > 15 µM; in assay [2], > 15 µM; in assay [3], < 5 µM; in assay [4], 5 to 15 µM.
Consider `C[C@@H](O)[C@H](NC(=O)[C@H](CCC(N)=O)NC(=O)[C@H](CC(=O)O)NC(=O)[C@H](Cc1c[nH]c2ccccc12)NC(=O)[C@H](Cc1ccc(O)cc1)NC(=O)[C@H](CCCCN)NC(=O)[C@H](Cc1ccccc1)NC(=O)[C@@H](N)Cc1ccc(O)cc1)C(=O)N[C@@H](Cc1ccc(O)cc1)C(=O)O` [Epitope M122] (H-YFKYWDQTY-OH; N-terminus and C-terminus assumed), for which the IC50 in assay [1] (setting [8]) is > 15 µM; in assay [5], > 15 µM; in assay [6], > 15 µM; in assay [3], > 15 µM; in assay [4] it was 5 to 15 µM.
Take `CC[C@H](C)[C@H](NC(=O)[C@@H](NC(=O)CNC(=O)[C@H](CC(N)=O)NC(=O)[C@H](CO)NC(=O)[C@H](CC(=O)O)NC(=O)[C@H](C)NC(=O)[C@@H](N)CCSC)[C@@H](C)O)C(=O)N[C@H](C(=O)N[C@H](C(=O)O)C(C)C)[C@@H](C)O` [Epitope M48] (H-MADSNGTITV-OH; N-terminus and C-terminus assumed): the IC50 in assay [1] (setting [8]) is > 15 µM; in assay [5] it was 5 to 15 µM; in assay [3] it was > 15 µM.
Turning to `CC[C@H](C)[C@H](NC(=O)[C@H](CCCNC(=N)N)NC(=O)[C@H](CO)NC(=O)[C@H](CCSC)NC(=O)CNC(=O)[C@@H](N)Cc1ccccc1)C(=O)NCC(=O)N[C@@H](CCSC)C(=O)N[C@@H](CCC(=O)O)C(=O)N[C@H](C(=O)O)C(C)C` [Epitope M19] (H-FGMSRIGMEV-OH; N-terminus and C-terminus assumed), the IC50 is > 15 µM in assay [1] (setting [8]), > 15 µM in assay [7], < 5 µM in assay [3] and > 15 µM in assay [4].
`CC[C@H](C)[C@H](NC(=O)[C@H](CCCNC(=N)N)NC(=O)[C@H](CC(C)C)NC(=O)[C@H](CCSC)NC(=O)[C@H](CC(N)=O)NC(=O)[C@@H]1CCCN1C(=O)[C@H](CCSC)NC(=O)[C@H](C)NC(=O)[C@@H](N)CCCNC(=N)N)C(=O)O` [Epitope M30] (H-RAMPNMLRI-OH; N-terminus and C-terminus assumed): the IC50 in assay [1] (setting [8]) is 5 to 15 µM; in assay [7] it was > 15 µM; in assay [2], > 15 µM; in assay [3], < 5 µM; in assay [4], > 15 µM.
For the molecule `CSCC[C@H](NC(=O)[C@H](CO)NC(=O)[C@H](Cc1ccccc1)NC(=O)[C@H](Cc1c[nH]cn1)NC(=O)[C@H](CCCCN)NC(=O)[C@H](CCCNC(=N)N)NC(=O)[C@H](CC(C)C)NC(=O)[C@H](Cc1ccc(O)cc1)NC(=O)[C@H](C)NC(=O)[C@@H](N)Cc1ccc(O)cc1)C(=O)O` [Epitope M26] (H-YAYLRKHFSM-OH; N-terminus and C-terminus assumed), the IC50 is > 15 µM in assay [1]; 5 to 15 µM in assay [5]; 5 to 15 µM in assay [6]; > 15 µM in assay [3]; > 15 µM in assay [4]. In assay [1], the inhibition at 5 µM is 8.9%. The inhibition at 15 µM in assay [1] was 33.9%.

For orientation: inhibition means the drop in the measured response relative to a control, in per cent.
